From patent US11185527B2, “Methods and compositions relating to steroid hormone receptor-dependent cancers” (Wayne State University, priority 2017, dated 2021)

Columns and labels:
LNCaP cells = assay: Cell monolayer growth assay (MTT); assay type: cell-based; settings: enzalutamide up to 20 uM
Experimental: (§1) Twenty four hours after plating the LNCaP cells, they were treated with the indicated concentrations of KCI807 (FIG. 4E) or with the indicated concentrations of enzalutamide (ENZ) (FIG. 4F). […] Cells were trypsinized and 3000-4000 cells/well were seeded in 96-well plates coated with poly-D-lysine. The cells were seeded in phenol red-free medium supplemented with 10% FBS, 100 units/ml penicillin, 100 μg/ml streptomycin, 2 mM L-glutamine mixture and sodium pyruvate (1 mM) for LNCaP cells and phenol red-free medium supplemented with 10% FBS, 100 units/ml penicillin, 100 μg/ml streptomycin and 2 mM L-glutamine mixture for VCaP, 22Rv1, DU145, HeLa, HEK293 and H1650 cells. The cells were grown at 37° C. in 5% CO2. Twenty four hours after seeding in the 96-well plates, the cells were treated with the indicated concentration of KCI807 or DMSO (vehicle). The cells were re-treated on Day 3 by removing half the volume of medium and replacing it with fresh treated medium. Cell viability was determined using the MTT assay from day zero until day five. MTT (10 μL, 5 mg/mL) was added to each well and incubated for 2h at 37° C. The formazan crystal sediments were dissolved in 100 μL of DMSO, and the absorbance at 570 nm was measured using the BioTek Synergy 2 Microplate Reader (BioTek, Winooski, Vt.). The assay was conducted in sextuplicate wells and values were normalized to day zero.

[1] = tested on: activation of ELK1 by MEK/ERK; assay: Gal4-ELK1 reporter activation by constitutively active MEK1 in transfected HeLa cells; assay type: cell-based; settings: HeLa cells with caMEK1; trametinib 1 μM, KCI807 20 μM
Experimental: FIG. 8 is a graph showing results of co-transfection of HeLa cells with the Gal4-TATA-Luc construct and the expression plasmid for the Gal4-ELK1 fusion protein. In addition the cells were transfected with an expression plasmid for a constitutively active MEK1 protein (caMEK1). The cells were then treated with the MEK1 inhibitor, trametinib (1 μM), KCI807 (20 μM), or vehicle (DMSO). Cells were harvested 48h post transfection and luciferase activity was measured. In all panels, the error bars represent standard deviation of experimental triplicates. *P<0.001
Hela Cells were plated in a 24-well plate at a concentration of 75,000 cells/well in antibiotic-free red DMEM. The following day the cells were transfected with a total of 300 ng of plasmid DNA/well using Lipofectamine 2000. The cells were incubated for 24h then lysed using luciferase assay lysis buffer 5X from Promega. The luciferase activity of the cell lysates were measured using firefly substrate from Promega and a luminometer (Lumat LB9501, Berthold, Wildbad, Germany).
As a secondary test of target selectivity, the effect of 5,3′-dihydroxyflavone on activation of ELK1 by MEK/ERK was examined using HeLa cells co-transfected with the Gal4-TATA-Luc construct, the expression plasmid for the Gal4-ELK1 fusion protein and either an expression plasmid for a constitutively active MEK1 protein (caMEK1) or vector control.

[2] = tested on: DU145 (prostate cancer cells), AR-negative; assay: Cell monolayer growth assay (MTT); assay type: cell-based
Experimental: FIG. 12A is a graph showing the effect of KCI807 on in vitro growth of AR-negative cell line Du145 cells measured by the MTT assay. All values were plotted relative to the Day zero value.
FIG. 16E is a graph showing the effect of 5′-Fluoro-5,3′-Dihydroxyflavone at various concentrations on growth of DU145 cells.
Cells were trypsinized and 3000-4000 cells/well were seeded in 96-well plates coated with poly-D-lysine. The cells were seeded in phenol red-free medium supplemented with 10% FBS, 100 units/ml penicillin, 100 μg/ml streptomycin, 2 mM L-glutamine mixture and sodium pyruvate (1 mM) for LNCaP cells and phenol red-free medium supplemented with 10% FBS, 100 units/ml penicillin, 100 μg/ml streptomycin and 2 mM L-glutamine mixture for VCaP, 22Rv1, DU145, HeLa, HEK293 and H1650 cells. The cells were grown at 37° C. in 5% CO2. Twenty four hours after seeding in the 96-well plates, the cells were treated with the indicated concentration of KCI807 or DMSO (vehicle). The cells were re-treated on Day 3 by removing half the volume of medium and replacing it with fresh treated medium. Cell viability was determined using the MTT assay from day zero until day five. […] The formazan crystal sediments were dissolved in 100 μL of DMSO, and the absorbance at 570 nm was measured using the BioTek Synergy 2 Microplate Reader (BioTek, Winooski, Vt.). […]

VCaP cells = assay: Cell monolayer growth assay (MTT); assay type: cell-based
Experimental: as §1, with “the VCaP” for “the LNCaP”, “(FIG. 4G)” for “(FIG. 4E)”, “(FIG. 4H).” for “(FIG. 4F).”

22Rv1 cells = assay: Cell monolayer growth assay (MTT); assay type: cell-based, human; settings: enzalutamide up to 20 uM
Experimental: Twenty four hours after plating the 22Rv1 cells, they were treated with the indicated concentrations of KCI807 (FIG. 4C) or with the indicated concentrations of enzalutamide (ENZ) (FIG. 4D).
Twenty four hours after plating the cells, they were treated with the indicated concentrations of the compound.
FIG. 16D is a graph showing the effect of 5′-Fluoro-5,3′-Dihydroxyflavone at various concentrations on growth of 22Rv1 cells.
Cells were trypsinized and 3000-4000 cells/well were seeded in 96-well plates coated with poly-D-lysine. The cells were seeded in phenol red-free medium supplemented with 10% FBS, 100 units/ml penicillin, 100 μg/ml streptomycin, 2 mM L-glutamine mixture and sodium pyruvate (1 mM) for LNCaP cells and phenol red-free medium supplemented with 10% FBS, 100 units/ml penicillin, 100 μg/ml streptomycin and 2 mM L-glutamine mixture for VCaP, 22Rv1, DU145, HeLa, HEK293 and H1650 cells. The cells were grown at 37° C. in 5% CO2. Twenty four hours after seeding in the 96-well plates, the cells were treated with the indicated concentration of KCI807 or DMSO (vehicle). The cells were re-treated on Day 3 by removing half the volume of medium and replacing it with fresh treated medium. Cell viability was determined using the MTT assay from day zero until day five. MTT (10 μL, 5 mg/mL) was added to each well and incubated for 2h at 37° C. The formazan crystal sediments were dissolved in 100 μL of DMSO, and the absorbance at 570 nm was measured using the BioTek Synergy 2 Microplate Reader (BioTek, Winooski, Vt.). The assay was conducted in sextuplicate wells and values were normalized to day zero.

O=c1cc(-c2cc(O)cc(F)c2)oc2cccc(O)c12 [5′-fluoro-5,3′-dihydroxyflavone]
growth inhibition of LNCaP cells (LNCaP cells): inhibited growth
inhibition of luciferase reporter activation by MEK1 (activation of ELK1 by MEK/ERK) [1]: did not affect
growth of DU145 cells [2]: did not inhibit growth
growth inhibition of VCaP cells (VCaP cells): inhibited growth
growth inhibition of 22Rv1 cells (22Rv1 cells): inhibited growth

CNC(=O)c1ccc(N2C(=S)N(c3ccc(C#N)c(C(F)(F)F)c3)C(=O)C2(C)C)cc1F [enzalutamide]
growth inhibition of LNCaP cells (LNCaP cells): only showed partial effects
growth inhibition of VCaP cells (VCaP cells): most sensitive
growth inhibition of 22Rv1 cells (22Rv1 cells): only showed partial effects

O=c1cc(-c2cccc(O)c2)oc2cccc(O)c12 [KCI807, 5,3′-dihydroxyflavone]
growth inhibition of LNCaP cells (LNCaP cells): completely inhibited cell growth
inhibition of luciferase reporter activation by MEK1 (activation of ELK1 by MEK/ERK) [1]: did not inhibit
growth of DU145 cells [2]: did not appreciably affect the growth
growth inhibition of VCaP cells (VCaP cells): most sensitive
growth inhibition of 22Rv1 cells (22Rv1 cells): completely inhibited cell growth
